According to US20240197686A1, “ANTI-TUMORAL EFFECTIVE BENZIMIDAZOLE ZINC COMPLEXES” (INONU UNIVERSITESI REKTORLUGU, priority 2022, published 2024):
“Also recorded” adds a separate entry of the source.

Key:
[1] = system: lung, liver, kidney tissues; test: Histology (H-E, light microscope) of lung, liver, kidney tissues of tumour developed nude rats; assay type: in vivo; settings: for Histopathological damage in lung, liver and kidney tissues (overall): rat, in vivo
Description: After […] operation; lung, liver, kidney tissues were taken and 10% were fixed in formaldehyde, and the sections prepared after their histological tissue follow-up procedures were examined with a light microscope.

[2] = system: Lung Cancer; settings: lung cancer treatment; cited from earlier work

Compound: N.N.[Cl][Pt][Cl] [Cisplatin, cis-diamminedichloroplatinum II]
- Kidney histology ([1]; H-E sections): narrowing in glomerular Bowman's space (arrow), tubule epithelial damage; also recorded: Glomerular collapse and vascular congestion
- Liver histology ([1]; H-E sections): hemorage (aster) in parenchymal area, vascular congestion; also recorded: hemorrhagic fields and vascular congestion in parenchyma
- Lung histology ([1]; H-E sections): Secretion (aster) in bronchiole lumen, vascular congestion; also recorded: Secretion accumulations and vascular congestion
- Histopathological damage in lung, liver and kidney tissues (overall) [1]: caused tissue damages
- Histopathological damage in lung, liver and kidney tissues (overall) ([1]; listed as cisplatin): causes histopathological damages in lung, liver and kidney tissues
- surviving [2]: 6 months
